Experiment [1] concerns the target T1, CDK2/CycE (Homo sapiens, UniProt P24941).
T1 construct: GST; purchased ProQinase GmbH (Freiburg, Germany); host or cells: insect cells (Sf9)
The experiment can be described thus: CDK2/CycE kinase assay (TR-FRET). Format: biochemical. The conditions noted are these: avg, read-out: CDK2 avg (IC50 [mol/l]). The method in brief:
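GST-tagged human CDK2 and CycE from Sf9 cells, preincubated 15 min with compound, then 25 min at 22° C. with 10 μM ATP and 0.75 μM biotinylated Rb-derived peptide (final). Phospho-substrate read by TR-FRET (anti-pRB pSer807/pSer811, Eu anti-mouse IgG, streptavidin-XL665), 665/620 nm ratio, normalised to no-inhibitor and no-enzyme controls.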

For experiment [2], the system named is HeLa. The experiment in a line: Proliferation assay (crystal violet), HeLa. Type of experiment: cell-based. The conditions noted are these: HeLa cells, 4 days incubation, crystal violet staining, read-out: IC50 inhibition of proliferation, HeLa. In a few lines:
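Seed 1000–5000 cells/well, 10% FCS; 24 h later replace medium and add compound (0.001–10 μM, 0.5% DMSO); incubate 4 d; glutaraldehyde fix, 0.1% crystal violet pH 3.0, elute with 10% acetic acid; A595; 4-parameter IC50.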

Structures are written as SMILES. Where a name gives a salt, the structure may show the parent alone. Read-outs that look alike come from different tables or passages of the source.

Data on 21 compounds can be found in patent US20170334899A1, “AMINO-SUBSTITUTED ISOTHIAZOLES” (Bayer Pharma Aktiengesellschaft, priority 2014, published 2017).

On to `Cc1nsc(Nc2cnc(C(F)(F)F)cn2)c1C(=O)Nc1ccc(OC2CCN(CC(F)(F)F)CC2)nc1` [Example 9, -Methyl-N-(6-{[1-(2,2,2-trifluoroethyl)piperidin-4-yl]oxy}pyridin-3-yl)-5-{[5-(trifluoromethyl)pyrazin-2-yl]amino}-1,2-thiazole-4-carboxamide], for which the IC50 in experiment [1] is ≥ 20000 nM; in experiment [2] (Homo sapiens, HeLa, 96 h) it was 220 nM.

In the case of `Cc1nsc(Nc2cnc(C(F)(F)F)cn2)c1C(=O)Nc1ccc(O[C@@H]2CCN(CC(F)F)C[C@@H]2F)nc1` [Example 137, N-(6-{[(3S,4R)-1-(2,2-difluoroethyl)-3-fluoropiperidin-4-yl]oxy}pyridin-3-yl)-3-methyl-5-{[5-(trifluoromethyl)pyrazin-2-yl]amino}-1,2-thiazole-4-carboxamide], the IC50 in experiment [1] is > 20000 nM; in experiment [2] (Homo sapiens, HeLa, 96 h) it was 180 nM.

Turning to `Cc1nsc(Nc2cnc(C(F)(F)F)cn2)c1C(=O)Nc1ccc(O[C@@H]2CCN(CC(F)(F)F)C[C@@H]2F)nc1` [Example 138, N-(6-{[(3S,4R)-3-fluoro-1-(2,2,2-trifluoroethyl)piperidin-4-yl]oxy}pyridin-3-yl)-3-methyl-5-{[5-(trifluoromethyl)pyrazin-2-yl]amino}-1,2-thiazole-4-carboxamide], the IC50 in experiment [1] was > 20000 nM; in experiment [2] (Homo sapiens, HeLa, 96 h) it was 140 nM.

Consider `Cc1nsc(Nc2cnc3ccccc3n2)c1C(=O)Nc1ccc(S(C)(=O)=O)cc1` [Example 115, 3-Methyl-N-[4-(methylsulfonyl)phenyl]-5-(quinoxalin-2-ylamino)-1,2-thiazole-4-carboxamide], for which the IC50 was ≥ 20000 nM in experiment [1] and 4400 nM in experiment [2] (Homo sapiens, HeLa, 96 h).

`Cc1nsc(Nc2cnc(C(F)(F)F)cn2)c1C(=O)Nc1ccc(O[C@H]2CCN(CC(F)F)C[C@H]2F)nc1` [Example 144, N-(6-{[(3R,4S)-1-(2,2-difluoroethyl)-3-fluoropiperidin-4-yl]oxy}pyridin-3-yl)-3-methyl-5-{[5-(trifluoromethyl)pyrazin-2-yl]amino}-1,2-thiazole-4-carboxamide]: the IC50 was > 20000 nM in experiment [1] and 160 nM in experiment [2] (Homo sapiens, HeLa, 96 h).

As for `Cc1nsc(Nc2ccc(C#N)cn2)c1C(=O)Nc1ccc(Oc2cccc(C(F)(F)F)c2)nc1` [Example 118, 5-[(5-Cyanopyridin-2-yl)amino]-3-methyl-N-{6-[3-(trifluoromethyl)phenoxy]pyridin-3-yl}-1,2-thiazole-4-carboxamide], the IC50 in experiment [1] is ≥ 20000 nM; in experiment [2] (Homo sapiens, HeLa, 96 h), 600 nM.

Regarding `Cc1nsc(Nc2cnc(C(F)(F)F)cn2)c1C(=O)Nc1ccc(C(=O)N2CCN(CC(F)F)CC2)cc1` [Example 154, N-(4-{[4-(2,2-difluoroethyl)piperazin-1-yl]carbonyl}phenyl)-3-methyl-5-{[5-(trifluoromethyl)pyrazin-2-yl]amino}-1,2-thiazole-4-carboxamide], the IC50 was > 20000 nM in experiment [1] and 2500 nM in experiment [2] (Homo sapiens, HeLa, 96 h).

For `Cc1nsc(Nc2cnc3ccccc3n2)c1C(=O)Nc1cccc(C(=O)N2CCN(C)CC2)c1` [Example 102, 3-Methyl-N-{3-[(4-methylpiperazin-1-yl)carbonyl]phenyl}-5-(quinoxalin-2-ylamino)-1,2-thiazole-4-carboxamide], the IC50 in experiment [1] is ≥ 20000 nM; in experiment [2] (Homo sapiens, HeLa, 96 h), 10000 nM.

`Cc1nsc(Nc2cnc(C(F)(F)F)cn2)c1C(=O)Nc1ccc(OCC2CCN(CC(F)F)C2)nc1` (stereo not drawn) [Example 122, N-(6-{[1-(2,2-difluoroethyl)pyrrolidin-3-yl]methoxy}pyridin-3-yl)-3-methyl-5-{[5-(trifluoromethyl)pyrazin-2-yl]amino}-1,2-thiazole-4-carboxamide]: the IC50 was ≥ 20000 nM in experiment [1] and 280 nM in experiment [2] (Homo sapiens, HeLa, 96 h).

`Cc1nsc(Nc2cnc(C(F)(F)F)cn2)c1C(=O)Nc1ccc(O[C@H]2CCN(CCC(F)(F)F)C[C@H]2F)nc1` [Example 146, N-(6-{[(3R,4S)-3-fluoro-1-(3,3,3-trifluoropropyl)piperidin-4-yl]oxy}pyridin-3-yl)-3-methyl-5-{[5-(trifluoromethyl)pyrazin-2-yl]amino}-1,2-thiazole-4-carboxamide]: the IC50 in experiment [1] was > 20000 nM; in experiment [2] (Homo sapiens, HeLa, 96 h), 240 nM.

`Cc1nsc(Nc2cnc(C(F)(F)F)cn2)c1C(=O)Nc1ccc(OC2CCN(CCC(F)(F)F)CC2)nc1` [Example 426, 3-Methyl-5-{[5-(trifluoromethyl)pyrazin-2-yl]amino}-N-(6-{[1-(3,3,3-trifluoro-propyl)piperidin-4-yl]oxy}pyridin-3-yl)-1,2-thiazole-4-carboxamide, Salt with Hydrochloric Acid]: the IC50 in experiment [1] is ≥ 20000 nM; in experiment [2], 420 nM.

For `COc1ccc(NC(=O)c2c(C)nsc2Nc2ccc(C#N)cn2)c(N2CCOCC2)n1` [Example 173, 5-[(5-cyanopyridin-2-yl)amino]-N-[6-methoxy-2-(morpholin-4-yl)pyridin-3-yl]-3-methyl-1,2-thiazole-4-carboxamide], the IC50 is > 20000 nM in experiment [1] and > 10000 nM in experiment [2] (Homo sapiens, HeLa, 96 h).

Regarding `Cc1nsc(Nc2cnc(C(F)(F)F)cn2)c1C(=O)Nc1ccc(OC2CCN(CC(F)F)CC2)c(F)c1` [Example 164, N-(4-{[1-(2,2-difluoroethyl)piperidin-4-yl]oxy}-3-fluorophenyl)-3-methyl-5-{[5-(trifluoromethyl)pyrazin-2-yl]amino}-1,2-thiazole-4-carboxamide], the IC50 in experiment [1] is > 20000 nM; in experiment [2] (Homo sapiens, HeLa, 96 h), 160 nM.

With `Cc1nsc(Nc2ccc(C#N)cn2)c1C(=O)Nc1ccc(N[C@@H](C)C(=O)OC(C)(C)C)nc1` [Example 170, tert-butyl N-{5-[({5-[(5-cyanopyridin-2-yl)amino]-3-methyl-1,2-thiazol-4-yl}carbonyl)amino]pyridin-2-yl}alaninate], the IC50 is > 20000 nM in experiment [1] and > 10000 nM in experiment [2] (Homo sapiens, HeLa, 96 h).

In the case of `Cc1nsc(Nc2cnc(C(F)(F)F)cn2)c1C(=O)Nc1ccc(OC[C@H]2CCN(CCC(F)(F)F)C2)nc1` [Example 134, 3-Methyl-5-{[5-(trifluoromethyl)pyrazin-2-yl]amino}-N-(6-{[(3S)-1-(3,3,3-trifluoropropyl)pyrrolidin-3-yl]methoxy}pyridin-3-yl)-1,2-thiazole-4-carboxamide], the IC50 in experiment [1] was > 20000 nM; in experiment [2] (Homo sapiens, HeLa, 96 h), 450 nM.

Consider `Cc1nsc(Nc2cnc(C(F)(F)F)cn2)c1C(=O)Nc1ccc(C(=O)OC(C)(C)C)cc1` [Example 96, tert-Butyl 4-{[(3-methyl-5-{[5-(trifluoromethyl)pyrazin-2-yl]amino}-1,2-thiazol-4-yl)carbonyl]amino}benzoate], for which the IC50 in experiment [1] is ≥ 20000 nM; in experiment [2] (Homo sapiens, HeLa, 96 h) it was 1100 nM.

As to `CCCN1CC[C@@H](Oc2ccc(NC(=O)c3c(C)nsc3Nc3cnc(C(F)(F)F)cn3)cn2)[C@@H](F)C1` [Example 140, N-(6-{[(3S,4R)-3-fluoro-1-propylpiperidin-4-yl]oxy}pyridin-3-yl)-3-methyl-5-{[5-(trifluoromethyl)pyrazin-2-yl]amino}-1,2-thiazole-4-carboxamide], the IC50 in experiment [1] is > 20000 nM; in experiment [2] (Homo sapiens, HeLa, 96 h), 220 nM.

In the case of `Cc1nsc(Nc2ccc(C#N)cn2)c1C(=O)Nc1cccc(S(C)(=O)=O)c1` [Example 150, 5-[(5-cyanopyridin-2-yl)amino]-3-methyl-N-[3-(methylsulfonyl)phenyl]-1,2-thiazole-4-carboxamide], the IC50 in experiment [1] was > 20000 nM; in experiment [2] (Homo sapiens, HeLa, 96 h), 2800 nM.

As to `Cc1nsc(Nc2cncc(C(F)(F)F)n2)c1C(=O)Nc1ccc(OC2CCN(C(=O)OC(C)(C)C)CC2)nc1` [Example 12, tert-Butyl 4-[(5-{[(3-methyl-5-{[6-(trifluoromethyl)pyrazin-2-yl]amino}-1,2-thiazol-4-yl)carbonyl]amino}pyridin-2-yl)oxy]piperidine-1-carboxylate], the IC50 in experiment [1] is ≥ 20000 nM; in experiment [2] (Homo sapiens, HeLa, 96 h), 910 nM.

As for `Cc1nsc(Nc2cnc(C(F)(F)F)cn2)c1C(=O)Nc1ccc(OC2CCN(CC(F)F)CC2)nc1` [Example 8, N-(6-{[1-(2,2-Difluoroethyl)piperidin-4-yl]oxy}pyridin-3-yl)-3-methyl-5-{[5-(trifluoromethyl)pyrazin-2-yl]amino}-1,2-thiazole-4-carboxamide], the IC50 in experiment [1] is ≥ 20000 nM; in experiment [2] (Homo sapiens, HeLa, 96 h), 280 nM.

On to `Cc1nsc(Nc2cnc(C(F)(F)F)cn2)c1C(=O)Nc1ccc(OCC2CCN(CC(F)(F)F)C2)nc1` (stereo not drawn) [Example 123, 3-Methyl-N-(6-{[1-(2,2,2-trifluoroethyl)pyrrolidin-3-yl]methoxy}pyridin-3-yl)-5-{[5-(trifluoromethyl)pyrazin-2-yl]amino}-1,2-thiazole-4-carboxamide], for which the IC50 in experiment [1] was ≥ 20000 nM; in experiment [2] (Homo sapiens, HeLa, 96 h), 130 nM.
